Results from ChEMBL document CHEMBL3885881, “DrugMatrix”.

Species on record: Rattus norvegicus
Test: DrugMatrix - Regimen: Daily Repeat
Assay type: toxicity, organism-based, Sprague-Dawley
Parameters: regimen Daily Repeat, gender Male, age 6-8 weeks
Conditions: in vivo, po, route oral GAVAGE, […]; for ABSOLUTE BASOPHIL / ABSOLUTE EOSINOPHIL / ABSOLUTE LYMPHOCYTE / ABSOLUTE MONOCYTE / ABSOLUTE SEGMENTED NEUTROPHIL / BASOPHIL / EOSINOPHIL / ERYTHROCYTE COUNT / HEMATOCRIT / HEMOGLOBIN / LEUKOCYTE COUNT / LYMPHOCYTE / MEAN CORPUSCULAR HEMOGLOBIN / MEAN CORPUSCULAR HEMOGLOBIN CONCENTRATION / MEAN CORPUSCULAR VOLUME / MONOCYTE / NEUTROPHIL / NUCLEATED RED BLOOD CELLS / PLATELET COUNT: tissue Blood; for ALANINE AMINOTRANSFERASE / ALBUMIN / ALKALINE PHOSPHATASE / ASPARTATE AMINOTRANSFERASE / BLOOD UREA NITROGEN / CARBON DIOXIDE / CHLORIDE / CHOLESTEROL / CREATINE PHOSPHOKINASE / CREATININE / GLUCOSE / LACTATE DEHYDROGENASE / LIPASE / PHOSPHORUS / POTASSIUM / SODIUM / TOTAL BILIRUBIN / TOTAL PROTEIN / URIC ACID: tissue Plasma
[1] = 30 mg/kg, 120 h, dose level Low, time 5 day
[2] = 1000 mg/kg, 72 h, dose level High, time 3 day
[3] = 1000 mg/kg, 120 h, dose level High, time 5 day

## CCCCC(=O)N(Cc1ccc(-c2ccccc2-c2nnn[nH]2)cc1)[C@H](C(=O)O)C(C)C
[1]
  ABSOLUTE BASOPHIL: 0 CELLS/uL
  ABSOLUTE EOSINOPHIL: 0 CELLS/uL
  ABSOLUTE LYMPHOCYTE: 14863.33 CELLS/uL
  ABSOLUTE MONOCYTE: 58.33 CELLS/uL
  ABSOLUTE SEGMENTED NEUTROPHIL: 1411.67 CELLS/uL
  BASOPHIL: 0%
  EOSINOPHIL: 0%
  ERYTHROCYTE COUNT: 5.54 x10E6/uL
  HEMATOCRIT: 34.23%
  HEMOGLOBIN: 13.5 G/DL
  LEUKOCYTE COUNT: 16.33 x10E3/uL
  LYMPHOCYTE: 91%
  MEAN CORPUSCULAR HEMOGLOBIN: 24.4 pg
  MEAN CORPUSCULAR HEMOGLOBIN CONCENTRATION: 39.43 G/DL
  MEAN CORPUSCULAR VOLUME: 61.87 fL
  MONOCYTE: 0.33%
  NEUTROPHIL: 8.67%
  NUCLEATED RED BLOOD CELLS: 0 /100WBC
  PLATELET COUNT: 1196 x10E3/uL
  ALANINE AMINOTRANSFERASE: 63.67 u/L
  ALBUMIN: 4.07 G/DL
  ALKALINE PHOSPHATASE: 455.33 u/L
  ASPARTATE AMINOTRANSFERASE: 87.33 u/L
  BLOOD UREA NITROGEN: 15.67 mg/dL
  CARBON DIOXIDE: 23.33 mmol/L
  CHLORIDE: 102.33 MEQ/L
  CHOLESTEROL: 63 mg/dL
  CREATINE PHOSPHOKINASE: 339 u/L
  CREATININE: 0.18 mg/dL
  GLUCOSE: 206.33 mg/dL
  LACTATE DEHYDROGENASE: 183 u/L
  LIPASE: 9.33 u/L
  PHOSPHORUS: 12.9 mg/dL
  POTASSIUM: 6.08 MEQ/L
  SODIUM: 140.77 MEQ/L
  TOTAL BILIRUBIN: 0.13 mg/dL
  TOTAL PROTEIN: 5.6 G/DL
  URIC ACID: 2.2 mg/dL
[2]
  ABSOLUTE BASOPHIL: 0 CELLS/uL
  ABSOLUTE EOSINOPHIL: 0 CELLS/uL
  ABSOLUTE LYMPHOCYTE: 6741.67 CELLS/uL
  ABSOLUTE MONOCYTE: 52 CELLS/uL
  ABSOLUTE SEGMENTED NEUTROPHIL: 673 CELLS/uL
  BASOPHIL: 0%
  EOSINOPHIL: 0%
  ERYTHROCYTE COUNT: 5.05 x10E6/uL
  HEMATOCRIT: 31%
  HEMOGLOBIN: 12.27 G/DL
  LEUKOCYTE COUNT: 7.47 x10E3/uL
  LYMPHOCYTE: 90.67%
  MEAN CORPUSCULAR HEMOGLOBIN: 24.33 pg
  MEAN CORPUSCULAR HEMOGLOBIN CONCENTRATION: 39.6 G/DL
  MEAN CORPUSCULAR VOLUME: 61.43 fL
  MONOCYTE: 0.67%
  NEUTROPHIL: 8.67%
  NUCLEATED RED BLOOD CELLS: 0 /100WBC
  PLATELET COUNT: 1278.67 x10E3/uL
  ALANINE AMINOTRANSFERASE: 56.67 u/L
  ALBUMIN: 3.8 G/DL
  ALKALINE PHOSPHATASE: 381.67 u/L
  ASPARTATE AMINOTRANSFERASE: 79.67 u/L
  BLOOD UREA NITROGEN: 47.33 mg/dL
  CARBON DIOXIDE: 23 mmol/L
  CHLORIDE: 100.67 MEQ/L
  CHOLESTEROL: 69.33 mg/dL
  CREATINE PHOSPHOKINASE: 401 u/L
  CREATININE: 0.56 mg/dL
  GLUCOSE: 149 mg/dL
  LACTATE DEHYDROGENASE: 105.67 u/L
  LIPASE: 10 u/L
  PHOSPHORUS: 9.53 mg/dL
  POTASSIUM: 7.33 MEQ/L
  SODIUM: 138.9 MEQ/L
  TOTAL BILIRUBIN: 0.2 mg/dL
  TOTAL PROTEIN: 5.27 G/DL
  URIC ACID: 1.17 mg/dL
[3]
  ABSOLUTE BASOPHIL: 0 CELLS/uL
  ABSOLUTE EOSINOPHIL: 82 CELLS/uL
  ABSOLUTE LYMPHOCYTE: 18525.33 CELLS/uL
  ABSOLUTE MONOCYTE: 112.67 CELLS/uL
  ABSOLUTE SEGMENTED NEUTROPHIL: 746.67 CELLS/uL
  BASOPHIL: 0%
  EOSINOPHIL: 0.33%
  ERYTHROCYTE COUNT: 5.79 x10E6/uL
  HEMATOCRIT: 35.4%
  HEMOGLOBIN: 13.73 G/DL
  LEUKOCYTE COUNT: 19.47 x10E3/uL
  LYMPHOCYTE: 95%
  MEAN CORPUSCULAR HEMOGLOBIN: 23.7 pg
  MEAN CORPUSCULAR HEMOGLOBIN CONCENTRATION: 38.8 G/DL
  MEAN CORPUSCULAR VOLUME: 61.13 fL
  MONOCYTE: 0.67%
  NEUTROPHIL: 4%
  NUCLEATED RED BLOOD CELLS: 0 /100WBC
  PLATELET COUNT: 1264 x10E3/uL
  ALANINE AMINOTRANSFERASE: 55.33 u/L
  ALBUMIN: 4.03 G/DL
  ALKALINE PHOSPHATASE: 436 u/L
  ASPARTATE AMINOTRANSFERASE: 82.33 u/L
  BLOOD UREA NITROGEN: 56 mg/dL
  CARBON DIOXIDE: 23.33 mmol/L
  CHLORIDE: 105 MEQ/L
  CHOLESTEROL: 70.67 mg/dL
  CREATINE PHOSPHOKINASE: 365 u/L
  CREATININE: 0.42 mg/dL
  GLUCOSE: 175.33 mg/dL
  LACTATE DEHYDROGENASE: 181.67 u/L
  LIPASE: 10.33 u/L
  PHOSPHORUS: 11.47 mg/dL
  POTASSIUM: 7.6 MEQ/L
  SODIUM: 140.73 MEQ/L
  TOTAL BILIRUBIN: 0.17 mg/dL
  TOTAL PROTEIN: 5.87 G/DL
  URIC ACID: 1.6 mg/dL
